Test results: publication PMC5360176 (Journal of clinical psychopharmacology, 2016)
Where “and” joins values, the source holds several entries; their conditions need not be identical. Identical values can stand only once. Like-named read-outs stand apart in the source and are kept apart here.

What was measured:
[1] = human, in vivo
clinical [2] = details: human, in vivo
[3] = human, in vivo; remark: listed apart in the source
CAI = details: low affinity RBC isoform; cited from earlier work
[4] = human, in vivo; remark: listed apart in the source
clinical [5] = details: human, in vivo; remark: listed apart in the source
CAII = details: high affinity RBC isoform; cited from earlier work
[6] = cited from earlier work
clinical [7] = details: human, in vivo; remark: listed apart in the source
[8] = oxycodone 30 mg p.o.
[9] = therapeutic dose of ~400 mg ACZ/day
[10] = noroxycodone in plasma after oxycodone + ACZ, Day 5
[11] = noroxycodone in plasma after oxycodone alone, Day 1
[12] = noroxycodone in plasma after oxycodone alone, Day 8

CC(=O)Nc1nnc(S(N)(=O)=O)s1 [ACZ, Acetazolamide]
Cmax [1]: 1285 ng/mL | Plasma Area under Curve [1]: 5568 ng/mlblood*h | Time of plasma maximum concentration (Cmax) after administration [1]: ≤ 1 h | Tmax [1]: 0.5 h | Tmax (clinical [2]): 7.2 h | Blood Area under Curve [3]: 52130 ng/ml*h | RBCs (minus residuum) Area under Curve [3]: 49555 ng/mlblood*h | RBCs (total) Area under Curve [3]: 133107 ng/mlblood*h | Max binding capacity (CAI): 155 µM | Urinary excretion rate Cmax [4]: 669 µg/h | Slowest individual urinary elimination rate (low outlier) ([4]; 48 h): 87 µg/h | Fastest individual urinary elimination rate (high outlier) ([4]; 96 h): 33 µg/h | Cmax (clinical [5]; Cmax): 1310 ng/mL | Cmax (clinical [5]; Plasma Cmax): 660 ng/mL | Tmax (clinical [5]; Plasma Tmax): 1 h | Tmax (clinical [5]; Tmax): 1 h | Maximum ACZ binding capacity (CAII): 17 µM | RBC concentration with which side effects correlate ([6]; therapeutic (~400 mg / day) doses): exceed 90 µM | Mean RBC concentration [6, 9]: 121 ± 46 µM | Mean plasma concentration [6, 9]: 51 ± 40 µM | Cmax (clinical [7]; Blood Cmax): 776 ng/mL | Tmax (clinical [7]; Blood Tmax): 4.8 h | Cmax (clinical [7]; RBCs (minus residuum) Cmax): 636 ng/mL | Tmax (clinical [7]; RBCs (minus residuum) Tmax): 7.5 h | Cmax (clinical [7]; RBCs (total) Cmax): 1790 ng/mL | Cmax (clinical [7]; RBCtotal Cmax): 17 ± 1 µM

COc1ccc2c3c1O[C@H]1C(=O)CC[C@@]4(O)[C@@H](C2)NCC[C@]314 [Noroxycodone]
Area under Curve [10]: 218 ng·h/mL | Cmax [10]: 30 ng/mL | Tmax [10]: 0.9 h | half-life [10]: 5.0 h | Cmax [11]: 34.9 ng/mL | Tmax [11]: 0.9 h | half-life [11]: 4.3 h | Area under Curve [12]: 213 ng·h/mL | Cmax [12]: 30.2 ng/mL | Tmax [12]: 0.9 h | half-life [12]: 4.7 h | Area under Curve (noroxycodone metabolite in plasma after oxycodone alone, Day 1, one-compartment): 224 ng·h/mL | Effect of ACZ on noroxycodone PK parameters (presence or absence of ACZ): no differences in any of the PK parameters

COc1ccc2c3c1O[C@H]1C(=O)CC[C@@]4(O)[C@@H](C2)N(C)CC[C@]314 [Oxycodone]
Tmax (human, in vivo, 30 mg): 1 h | Cmax (human, in vivo, 30 mg, Cmax, oxycodone alone, Day 1, plasma): 61.6 ng/mL | Cmax (human, in vivo, 30 mg, Cmax, oxycodone alone, Day 8, plasma): 68.5 ng/mL | half-life (human, in vivo, 30 mg, α-Half-life, oxycodone alone, Day 8, plasma): 0.14 ± 0.06 h | half-life (human, in vivo, 30 mg, β-Half-life, oxycodone alone, Day 1, plasma): 3.9 h | half-life (human, in vivo, 30 mg, β-Half-life, oxycodone alone, Day 8, plasma): 4.1 h | Cmax (human, in vivo, Cmax, oxycodone + ACZ, Day 5, plasma): 71.4 ng/mL | half-life (human, in vivo, α-Half-life, oxycodone + ACZ 15 mg, Day 5, plasma): 0.2 h | half-life (human, in vivo, β-Half-life, oxycodone + ACZ, Day 5, plasma): 4.1 h | Area under Curve (oxycodone + ACZ, Day 5, plasma): 341.3 ng·h/mL | Area under Curve (oxycodone alone, Day 1, plasma): 281.1 ^♦ h*ng/ml | Area under Curve (oxycodone alone, Day 8, plasma): 318.6 ng·h/mL | Tmax (oxycodone alone, Day 8, plasma): 1.0 h | α-Half-life (oxycodone alone, Day 8, plasma): 0.1 ^♦ h | Difference in oxycodone AUC (exposure), Day 5 with ACZ vs Day 1 alone (p<0.05, not different from Day 8): 20% and 20 ± 11% | Opioid Agonist Checklist scores as rated by subjects and observers [8]: increased scores on an Opioid Agonist Checklist | Pupil diameter [8]: sustained pupil miosis | Ratings on a visual analog scale of drug liking [8]: increased ratings on a visual analog scale of drug liking
